The subject of data set [1] is plasma testosterone levels. As to the kind of experiment: eight intravenous doses every three hours, plasma testosterone. The class given is in vivo, rats. The method, then:
(§1) Moreover, upon administration, PPI-149 rapidly reduces sex hormone levels to castrate levels. […] Testosterone levels returned to normal by 24 hours after the 300 μg/kg dose, but not until 72 hours after the 1000 μg/kg dose.

The test system of a further data set is testosterone levels. As to the kind of experiment: continuous subcutaneous infusion via osmotic pump, testosterone. The class given is in vivo, rats. The method, then:
as §1

Data set [2] relates to plasma testosterone levels. The experiment in a line: single dose in male rats, plasma testosterone. It is filed as in vivo. How it is done:
as §1

The values below come from patent US6737039B2, “Methods for detecting lesions in dense breast tissue using LHRH antagonists” (Praecis Pharmaceutics, Inc., priority 1998, dated 2004).

The structures appear in SMILES notation. Non-standard residues stand in square brackets, D forms with d. Residues, ends and D or L forms follow the SMILES beside them. dPhe(4-Cl) = N[C@H](Cc1ccc(Cl)cc1)C(=O)O; d2Nal = N[C@H](Cc1ccc2ccccc2c1)C(=O)O; Lys(iPr) = CC(C)NCCCC[C@H](N)C(=O)O; NMeY = CN[C@@H](Cc1ccc(O)cc1)C(=O)O; d3Pal = N[C@H](Cc1cccnc1)C(=O)O Some results are limits rather than exact numbers.

Excerpt for histamine release: Histamine-releasing activity of an LHRH antagonist can be assayed by the method described in U.S. Pat. No. 4,851,385 to Roeske.

In the case of `CC(=O)N[C@H](Cc1ccc2ccccc2c1)C(=O)N[C@H](Cc1ccc(Cl)cc1)C(=O)N[C@H](Cc1cccnc1)C(=O)N[C@@H](CO)C(=O)N(C)[C@@H](Cc1ccc(O)cc1)C(=O)N[C@H](CC(N)=O)C(=O)N[C@@H](CC(C)C)C(=O)N[C@@H](CCCCNC(C)C)C(=O)N1CCC[C@H]1C(=O)N[C@H](C)C(N)=O` [PPI-149, Ac-D-Nal^1,4-Cl-D-Phe^2, D-Pal^3, N—Me-Tyr^5, D-Asn^6, Lys(iPr)^8, D-Ala^10-LHRH] (Ac-[d2Nal][dPhe(4-Cl)][d3Pal]S[NMeY][dN]L[Lys(iPr)]P[dA]-NH2), the plasma testosterone levels entry is on record as “significant decrease” in data set [1] (eight intravenous doses of 1 μg/kg every three hours (8 μg/kg/day)) and “decreased to nearly undetectable levels” in data set [2] (single dose 300 or 1000 μg/kg, by 6 hours post-administration). Besides, in data set [1] (eight intravenous doses of 10 μg/kg every three hours (80 μg/kg/day)), the testosterone levels entry was “castrate levels of testosterone were achieved”. Also, in the data set with testosterone levels (after four weeks of continuous subcutaneous infusion), the “recovery of testosterone levels following pump removal” value is recorded as “complete within two weeks”. Moreover, the “time castration level was maintained by subsequent low doses” value in the data set with testosterone levels (after the high dose, 5, 15 or 50 μg/kg/day by continuous subcutaneous infusion) is recorded as 21 days. Besides, the “time to castrate levels of testosterone” value in the data set on testosterone levels (continuous subcutaneous infusion, 300 or 1000 μg/kg/day for two weeks) is listed as not above 7 days. Besides, the “time for testosterone levels to return to normal” value in data set [2] (single dose 300 μg/kg) is not above 24 h; in data set [2] (single dose 1000 μg/kg), 72 h. The histamine releasing activity result with histamine release is “low”.
